In patent US10774064B2 (Cadent Therapeutics, Inc., priority 2016, dated 2020):
Counter-ions that a name gives are not always drawn.

Molecular target: T1, small-conductance Ca2+-activated K+ channels (SK channels, subtype 2) (Homo sapiens, UniProt Q9H2S1)
T1 construct: expressed in transfected cells; host or cells: HEK293
Test: whole-cell patch-clamp of ionic current through SK2 channels in HEK293 cells (SC100)
Assay type: cell-based
Details: whole-cell patch-clamp, HEK293 cells expressing SK2 channels; concentration that increases the basal current by 100%
Method in brief: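 SC100, the concentration doubling basal current (a 100% increase), was taken from SK2 currents recorded by whole-cell patch-clamp in SK2-expressing HEK293 cells.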

| Compound | SC100 (μM) |
| --- | --- |
| Cc1csc(-c2cc(N)cc(NC3CCC(F)(F)CC3)n2)n1 [IN11063-087-P1, N2-(4,4-difluorocyclohexyl)-6-(4-methylthiazol-2-yl)pyridine-2,4-diamine] | ++ (++ means 200 nM-1000 nM) |
| Cc1ccn(-c2nc(N3CCOCC3)cc3c2CCN3)n1 [IN11063-092-P1, 4-(4-(3-methyl-1H-pyrazol-1-yl)-2,3-dihydro-1H-pyrrolo[3,2-c]pyridin-6-yl)morpholine hydrochloride] | + (+ means >1 uM) |
| CNc1cc(NC2CCC(F)(F)CC2)nc(-c2nc(C)cs2)c1 [IN11063-096-P1, N2-(4,4-difluorocyclohexyl)-N4-methyl-6-(4-methylthiazol-2-yl)pyridine-2,4-diamine] | ++ (++ means 200 nM-1000 nM) |
| CC(=O)N1CCCC(OCc2cc(NC3CCC(F)(F)CC3)nc(-n3ccc(C)n3)c2)C1 (stereo not drawn) [IN11067-003-P1] | ++ (++ means 200 nM-1000 nM) |
| COC(=O)N1CCCC(OCc2cc(NC3CCC(F)(F)CC3)nc(-n3ccc(C)n3)c2)C1 (stereo not drawn) [IN11067-004-P1] | ++ (++ means 200 nM-1000 nM) |
| Cc1cc(C)n(-c2cc(OCc3ncco3)cc(NC3CCC(F)(F)CC3)n2)n1 [IN11067-023-P1, N-(4,4-difluorocyclohexyl)-6-(3,5-dimethyl-1H-pyrazol-1-yl)-4-(oxazol-2-ylmethoxy)pyridin-2-amine] | +++ (+++ means <200 nM) |
| COc1cc(NC2CCCCC2)nc(-c2nc(C)cs2)n1 [IN11067-035-P1] | ++ (++ means 200 nM-1000 nM) |
| CSc1cc(NC2CCC(F)(F)CC2)nc(-n2nc(C)cc2C)n1 [IN11067-060-P1, N-(4,4-difluorocyclohexyl)-2-(3,5-dimethyl-1H-pyrazol-1-yl)-6-(methylthio)pyrimidin-4-amine] | + (+ means >1 uM) |
| Cc1cc(C)n(-c2nc(NC3CCC(F)(F)CC3)cc(S(C)(=O)=O)n2)n1 [IN11067-061-P1] | + (+ means >1 uM) |
| Cc1cc(C)n(-c2nc(NC3CCC(F)(F)CC3)cc([S+](C)[O-])n2)n1 (stereo not drawn) [IN11067-062-P1] | + (+ means >1 uM) |
| COc1cc(NC2CCC(F)CC2)nc(-c2nc(C)cs2)n1 (stereo not drawn) [IN11067-072-P1] | + (+ means >1 uM) |
| Cc1csc(-c2nc(NC3CCC(F)(F)CC3)cc(OC3CCOCC3)n2)n1 [IN11079-007-P1] | + (+ means >1 uM) |
| FC1(F)CCC(Nc2cc(N3CCOCC3)nc(-n3ccc(C(F)(F)F)n3)n2)CC1 [IN11079-009-P1, N-(4,4-difluorocyclohexyl)-6-morpholino-2-(3-(trifluoromethyl)-1H-pyrazol-1-yl)pyrimidin-4-amine] | ++ (++ means 200 nM-1000 nM) |
| Cc1csc(-c2nc(NC3CCC(F)(F)CC3)cc(OC3CCOC3)n2)n1 (stereo not drawn) [IN11079-014-P1] | + (+ means >1 uM) |
| Cc1csc(-c2nc(NC3CCC(F)(F)CC3)cc(OC3COC3)n2)n1 [IN11079-033-P1] | ++ (++ means 200 nM-1000 nM) |
| CCOc1ccn(-c2nc(C)cc(NC3CCC(F)(F)CC3)n2)n1 [IN11079-040-P1, N-(4,4-difluorocyclohexyl)-2-(3-ethoxy-1H-pyrazol-1-yl)-6-methylpyrimidin-4-amine] | + (+ means >1 uM) |
| Cc1csc(-c2cnc(NC3CCC(F)(F)CC3)c(C)n2)n1 [IN11079-047-P1, N-(4,4-difluorocyclohexyl)-3-methyl-5-(4-methylthiazol-2-yl) pyrazin-2-amine] | + (+ means >1 uM) |
| Cc1cc(NC2CCC(F)(F)CC2)nc(-n2ccc(OCc3ccccc3)n2)n1 [IN11079-066-P1, 2-(3-(benzyloxy)-1H-pyrazol-1-yl)-N-(4,4-difluorocyclohexyl)-6-methyl pyrimidin-4-amine] | + (+ means >1 uM) |
| Cc1cc(NC2CCC(F)(F)CC2)nc(-n2ccc(=O)[nH]2)n1 [IN11079-067-P1, 1-(4-((4,4-difluorocyclohexyl)amino)-6-methylpyrimidin-2-yl)-1H-pyrazol-3-ol] | + (+ means >1 uM) |
| COc1cc(NC2CCSCC2)nc(-c2nc(C)cs2)n1 [IN11079-072-P1] | + (+ means >1 uM) |
| Cc1ccn(-c2cc(CN3CCCOC3=O)cc(NC3CCC(F)(F)CC3)n2)n1 [IN11083-014-P1] | + (+ means >1 uM) |
| Cc1csc(-c2cc(NC(=O)OC(C)(C)C)cc(NC3CCC(F)(F)CC3)n2)n1 [IN11083-048-P1, tert-butyl (2-((4,4-difluorocyclohexyl)amino)-6-(4-methylthiazol-2-yl)pyridin-4-yl) carbamate] | +++ (+++ means <200 nM) |
| COc1c(NC2CCC(F)(F)CC2)nc(-c2nc(C)cs2)nc1C(C)O (stereo not drawn) [IN11104-039-P1, 1-(6-((4,4-difluorocyclohexyl)amino)-5-methoxy-2-(4-methylthiazol-2-yl)pyrimidin-4-yl)ethan-1-ol] | + (+ means >1 uM) |
| COC(=O)NCCOc1nc(-c2nc(C)cs2)nc(NC2CCC(F)(F)CC2)c1OC [IN11104-041-P1] | ++ (++ means 200 nM-1000 nM) |
| CC(=O)c1cc(NC2CCC(F)(F)CC2)cc(-c2nc(C)cs2)c1 [IN11104-059-P1, 1-(3-((4,4-difluorocyclohexyl)amino)-5-(4-methylthiazol-2-yl)phenyl) ethan-1-one] | + (+ means >1 uM) |
| Cc1csc(-c2cc(NC3CCC(F)(F)CC3)cc(C(C)O)c2)n1 (stereo not drawn) [IN11104-077-P1, 1-(3-((4,4-difluorocyclohexyl)amino)-5-(4-methylthiazol-2-yl)phenyl) ethan-1-ol] | + (+ means >1 uM) |

| Compound | SC100 (μM) |
| --- | --- |
| COc1cc(NC2CCC3(CC2)COC3)nc(-c2nc(C)cs2)n1 [IN11104-084-P2] | + (+ means >1 uM) |
| CC(=O)c1cc(N2CCOCC2)cc(NC2CCC(F)(F)CC2)n1 [IN11104-090-P1, 1-(6-((4,4-difluorocyclohexyl)amino)-4-morpholinopyridin-2-yl) ethan-1-one] | + (+ means >1 uM) |
| Cc1csc(-c2nc(NC3CCC(F)(F)CC3)cc(C(C)C#N)n2)n1 (stereo not drawn) [IN11104-094-P1, 2-(6-((4,4-difluorocyclohexyl)amino)-2-(4-methylthiazol-2-yl)pyrimidin-4-yl) propanenitrile] | ++ (++ means 200 nM-1000 nM) |
| Cc1nccc(-c2cc(N3CCOCC3)cc(NC3CCC(F)(F)CC3)n2)n1 [IN11104-095-P1, N-(4,4-difluorocyclohexyl)-6-(2-methylpyrimidin-4-yl)-4-morpholinopyridin-2-amine] | + (+ means >1 uM) |
| COC(C)c1cc(N(C)C2CCC(F)(F)CC2)nc(-n2ccc(C3CC3)n2)n1 (stereo not drawn) [IN11104-100-P1, 2-(3-cyclopropyl-1H-pyrazol-1-yl)-N-(4,4-difluorocyclohexyl)-6-(1-methoxyethyl)-N-methylpyrimidin-4-amine] | + (+ means >1 uM) |
| COc1cc(NC2CCOCC2)nc(-c2nc(C)cs2)n1 [IN11106-004-P1] | + (+ means >1 uM) |
| COc1cc(NC2CCCOC2)nc(-c2nc(C)cs2)n1 (stereo not drawn) [IN11106-027-P1] | + (+ means >1 uM) |
| COc1cc(NC2CCC3(CC2)CC3)nc(-c2nc(C)cs2)n1 [IN11106-033-P1] | + (+ means >1 uM) |
| Cc1cc(NC2CCC(F)(F)CC2)nc(-n2ccc(C3CC3)n2)c1 [IN11106-062-P1, 6-(3-cyclopropyl-1H-pyrazol-1-yl)-N-(4,4-difluorocyclohexyl)-4-methylpyridin-2-amine] | +++ (+++ means <200 nM) |
| CNC(=O)Oc1c(NC2CCC(F)(F)CC2)nc(-c2nc(C)cs2)nc1OC [IN11106-065-P1, 4-((4,4-difluorocyclohexyl)amino)-6-methoxy-2-(4-methylthiazol-2-yl)pyrimidin-5-yl methylcarbamate] | + (+ means >1 uM) |
| Cn1cnc(COc2cc(NC3CCC(F)(F)CC3)nc(-n3ccc(C4CC4)n3)n2)n1 [IN11106-066-P1] | + (+ means >1 uM) |
| Cc1csc(-c2nc(C)c(F)c(NC3CCC(F)(F)CC3)n2)n1 [IN11106-077-P1, N-(4,4-difluorocyclohexyl)-5-fluoro-6-methyl-2-(4-methylthiazol-2-yl)pyrimidin-4-amine] | ++ (++ means 200 nM-1000 nM) |
| Cc1ccn(-c2nc(NC3CCC(F)(F)CC3)cc(N3CCNC(=O)C3)n2)n1 [IN11106-091-P1] | ++ (++ means 200 nM-1000 nM) |
| Cc1ccn(-c2nc(NC3CC(F)(F)C3)cc(N3CCOCC3)n2)n1 [IN11107-020-P1] | + (+ means >1 uM) |
| COc1cc(NCCC(C)(F)F)nc(-c2nc(C)cs2)n1 [IN11107-021-P1] | + (+ means >1 uM) |
| COc1cc(NCCCC(C)(F)F)nc(-c2nc(C)cs2)n1 [IN11107-023-P1] | + (+ means >1 uM) |
| COc1cc(NC2CC(F)(F)C2)nc(-n2nc(C)cc2C)n1 [IN11108-018-P1] | + (+ means >1 uM) |
| Cc1cc(C)n(-c2nc(NC3CC(F)(F)C3)cc(N3CCOCC3)n2)n1 [IN11108-019-P1] | + (+ means >1 uM) |
| COCc1cc(NC2CC(F)(F)C2)nc(-n2nc(C)cc2C)n1 [IN11108-038-P1, N-(3,3-difluorocyclobutyl)-2-(3,5-dimethyl-1H-pyrazol-1-yl)-6-(methoxymethyl)pyrimidin-4-amine] | + (+ means >1 uM) |
| COc1cc(NC2CCC2)nc(-c2nc(C)cs2)n1 [IN11111-003-P1] | + (+ means >1 uM) |
| COc1c(NC2CCC(F)(F)CC2)nc(-c2nc(C)cs2)nc1OCc1cnco1 [IN11111-021-P1] | ++ (++ means 200 nM-1000 nM) |
| COc1c(NC2CCC(F)(F)CC2)nc(-c2nc(C)cs2)nc1OCCO [IN11111-023-P1] | + (+ means >1 uM) |
| Cc1cccc(-c2cc(CO)cc(NC3CCC(F)(F)CC3)n2)n1 [IN11111-063-P1, (6-((4,4-difluorocyclohexyl)amino)-6′-methyl-[2,2′-bipyridin]-4-yl)methanol] | + (+ means >1 uM) |
| OCc1cc(NC2CCC(F)(F)CC2)nc(-n2ccc(C3CC3)n2)c1 [IN11111-092-P1] | ++ (++ means 200 nM-1000 nM) |
| Cc1ccn(-c2nc(NC3CCC(F)(F)CC3)cc(N3CCCOCC3)n2)n1 [IN11111-097-P1] | ++ (++ means 200 nM-1000 nM) |
